Data from US20070093520A1, “Method of treatment of diarrhea-predominant irritable bowel syndrome in a subject” (priority 2005, published 2007).

Tested on: diarrhea-predominant IBS subjects
Assay: 3007 Study: open-label 52-week safety study, adverse events and withdrawals
Conditions: C/C group

`Cc1nccn1C[C@H]1CCc2c(c3cccc4c3n2CCC4)C1=O` [cilansetron, (R)-(−)-4,5,6,8,9,10-hexahydro-10-[(2-methyl-1H-imidazol-1-yl)methyl]-11H-pyrido-[3,2,1-jk]-carbazol-11-one] was tested, and the “TEAE: Labyrinthitis NOS” value was 2 (<1%) n (%), the “TEAE: Lacrimal Disorders” value was 2 (<1%) n (%) and the “TEAE: Lactose Intolerance” value was 0 n (%). The “TEAE: Laryngeal and Adjacent Sites Disorders NEC (Excl Infections and Neoplasms)” value was 2 (<1%) n (%), the “TEAE: Laryngitis NOS” value was 2 (<1%) n (%) and the “TEAE: Leiomyoma NOS” value was 1 (<1%) n (%). For the same molecule, the “TEAE: Lethargy” value was 0 n (%), the “TEAE: Leukopenia NOS” value was 2 (<1%) n (%) and the “TEAE: Leukopenias NEC” value was 2 (<1%) n (%). The “TEAE: Libido Decreased” value was 0 n (%), the “TEAE: Lid, Lash and Lacrimal Structural Disorders (Excl Congenital)” value was 1 (<1%) n (%) and the “TEAE: Lipid Metabolism Disorder NOS” value was 1 (<1%) n (%). The “TEAE: Lipid Metabolism and Deposit Disorders NEC” value was 1 (<1%) n (%), the “TEAE: Lipoma NOS” value was 2 (<1%) n (%) and the “TEAE: Lower Respiratory Tract Signs and Symptoms” value was 1 (<1%) n (%). For the same molecule, the “TEAE: Lymphadenopathy” value was 1 (<1%) n (%), the “TEAE: Lymphangitis and Lymphatic Disorders NEC” value was 1 (<1%) n (%) and the “TEAE: Meniere's Disease” value was 1 (<1%) n (%). The “TEAE: Menorrhagia*” value was 1 (<1%) n (%), the “TEAE: Menstruation Irregular*” value was 0 n (%) and the “TEAE: Menstruation and Uterine Bleeding NEC*” value was 1 (<1%) n (%). The “TEAE: Menstruation with Decreased Bleeding*” value was 1 (<1%) n (%), the “TEAE: Menstruation with Increased Bleeding*” value was 2 (1%) n (%) and the “TEAE: Mental Disorders NEC” value was 0 n (%). For the same molecule, the “TEAE: Mental Status Changes” value was 0 n (%), the “TEAE: Metabolism and Nutrition Disorders” value was 11 (4%) n (%) and the “TEAE: Middle Ear Disorders NEC” value was 1 (<1%) n (%). For the same molecule, the “TEAE: Motion Sickness” value was 0 n (%), the “TEAE: Myocardial Infarction” value was 1 (<1%) n (%) and the “TEAE: Nail and Nail Bed Conditions (Excl Infections and Infestations)” value was 0 n (%). For the same molecule, the “TEAE: Nasal Congestion and Inflammations” value was 7 (3%) n (%), the “TEAE: Neoplasms Benign Site Unspecified NEC” value was 1 (<1%) n (%) and the “TEAE: Neoplasms Benign, Malignant and Unspecified (Incl Cysts and Polyps)” value was 9 (4%) n (%). The “TEAE: Normal Pregnancy, Labour and Delivery*” value was 1 (<1%) n (%), the “TEAE: Ocular Disorders NEC” value was 0 n (%) and the “TEAE: Ocular Nerve and Muscle Disorders” value was 0 n (%). The “TEAE: Oedema NEC” value was 4 (2%) n (%), the “TEAE: Oedema NOS” value was 0 n (%) and the “TEAE: Oedema Peripheral” value was 4 (2%) n (%). The “TEAE: Ovarian Cancer NOS*” value was 1 (<1%) n (%), the “TEAE: Ovarian Cystadenofibroma*” value was 0 n (%) and the “TEAE: Ovarian Neoplasms Benign*” value was 0 n (%). The “TEAE: Ovarian Neoplasms Malignant (Excl Germ Cell)*” value was 1 (<1%) n (%), the “TEAE: Pain NOS” value was 2 (<1%) n (%) and the “TEAE: Pain and Discomfort NEC” value was 5 (2%) n (%). The “TEAE: Palpitations” value was 2 (<1%) n (%), the “TEAE: Panic Attack” value was 0 n (%) and the “TEAE: Panic Symptoms” value was 0 n (%). For the same molecule, the “TEAE: Papulosquamous Conditions” value was 0 n (%), the “TEAE: Paranasal Sinus Disorders (Excl Infections and Neoplasms)” value was 6 (2%) n (%) and the “TEAE: Paranasal Sinus Hypersecretion” value was 1 (<1%) n (%). For the same molecule, the “TEAE: Partial Vision Loss” value was 0 n (%), the “TEAE: Pelvic Pain NOS” value was 0 n (%) and the “TEAE: Penile Disorders NEC (Excl Erection and Ejaculation)*” value was 0 n (%). The “TEAE: Penile Haemorrhage*” value was 0 n (%), the “TEAE: Perception Disturbances” value was 0 n (%) and the “TEAE: Peripheral Embolism NOS” value was 0 n (%). The “TEAE: Peripheral Embolism and Thrombosis” value was 0 n (%), the “TEAE: Peripheral Vascular Disorders NEC” value was 2 (<1%) n (%) and the “TEAE: Pharyngitis” value was 3 (1%) n (%). The “TEAE: Polydipsia” value was 0 n (%), the “TEAE: Polyuria” value was 0 n (%) and the “TEAE: Posterior Capsule Opacification” value was 0 n (%). For the same molecule, the “TEAE: Postnasal Drip” value was 0 n (%), the “TEAE: Pregnancy NOS*” value was 1 (<1%) n (%) and the “TEAE: Pregnancy, Puerperium and Perinatal Conditions” value was 1 (<1%) n (%). For the same molecule, the “TEAE: Premenopause*” value was 0 n (%), the “TEAE: Premenstrual Syndrome*” value was 1 (<1%) n (%) and the “TEAE: Productive Cough” value was 1 (<1%) n (%). The “TEAE: Prostate and Seminal Vesicles Infections and Inflammations*” value was 2 (2%) n (%), the “TEAE: Prostatitis*” value was 2 (2%) n (%) and the “TEAE: Proteinuria” value was 1 (<1%) n (%). The “TEAE: Pruritus NEC” value was 3 (1%) n (%), the “TEAE: Pruritus NOS” value was 3 (1%) n (%) and the “TEAE: Psoriasis” value was 0 n (%). For the same molecule, the “TEAE: Psychiatric Disorders” value was 15 (6%) n (%), the “TEAE: Psychotic Disorder NEC” value was 0 n (%) and the “TEAE: Psychotic Disorder NOS” value was 0 n (%). The “TEAE: Purine Metabolism Disorders NEC” value was 2 (<1%) n (%), the “TEAE: Pyrexia” value was 2 (<1%) n (%) and the “TEAE: Rash Macular” value was 0 n (%). The “TEAE: Rash NOS” value was 4 (2%) n (%), the “TEAE: Rashes, Eruptions and Exanthems NEC” value was 4 (2%) n (%) and the “TEAE: Rate and Rhythm Disorders NEC” value was 2 (<1%) n (%). The “TEAE: Refractive Errors NOS” value was 1 (<1%) n (%), the “TEAE: Refractive and Accommodative Disorders” value was 1 (<1%) n (%) and the “TEAE: Renal Lithiasis” value was 3 (1%) n (%). For the same molecule, the “TEAE: Renal and Urinary Disorders” value was 13 (5%) n (%), the “TEAE: Reproductive System and Breast Disorders” value was 12 (5%) n (%) and the “TEAE: Reproductive Tract Signs and Symptoms NEC” value was 1 (<1%) n (%). The “TEAE: Respiratory Tract Congestion” value was 1 (<1%) n (%), the “TEAE: Respiratory Tract Disorders NEC” value was 1 (<1%) n (%) and the “TEAE: Respiratory, Thoracic and Mediastinal Disorders” value was 28 (11%) n (%). The “TEAE: Retinal Detachment” value was 1 (<1%) n (%), the “TEAE: Retinal Structural Change, Deposit and Degeneration” value was 1 (<1%) n (%) and the “TEAE: Rhinitis Allergic NOS” value was 3 (1%) n (%). The “TEAE: Rhinitis NOS” value was 3 (1%) n (%), the “TEAE: Rhinitis Seasonal” value was 1 (<1%) n (%) and the “TEAE: Rosacea” value was 1 (<1%) n (%). The “TEAE: Rosaceas” value was 1 (<1%) n (%), the “TEAE: Seasonal Allergy” value was 4 (2%) n (%) and the “TEAE: Sexual Desire Disorders” value was 0 n (%). For the same molecule, the “TEAE: Sick Sinus Syndrome” value was 0 n (%), the “TEAE: Sinus Arrhythmia” value was 0 n (%) and the “TEAE: Sinus Congestion” value was 5 (2%) n (%). For the same molecule, the “TEAE: Skin Disorder NOS” value was 0 n (%), the “TEAE: Skin Injuries and Mechanical Dermatoses” value was 1 (<1%) n (%) and the “TEAE: Skin Lesion NOS” value was 1 (<1%) n (%). For the same molecule, the “TEAE: Skin Neoplasms Benign” value was 0 n (%), the “TEAE: Skin Neoplasms Malignant and Unspecified (Excl Melanoma)” value was 2 (<1%) n (%) and the “TEAE: Skin Ulcer” value was 0 n (%). For the same molecule, the “TEAE: Skin and Subcutaneous Tissue Disorders” value was 14 (5%) n (%), the “TEAE: Skin and Subcutaneous Tissue Ulcerations” value was 0 n (%) and the “TEAE: Social Circumstances” value was 0 n (%). For the same molecule, the “TEAE: Soft Tissue Neoplasms Benign NEC” value was 3 (1%) n (%), the “TEAE: Strabismus” value was 0 n (%) and the “TEAE: Stress Incontinence” value was 1 (<1%) n (%). For the same molecule, the “TEAE: Stress Symptoms” value was 0 n (%), the “TEAE: Structural and Other Bile Duct Disorders” value was 0 n (%) and the “TEAE: Sugar Intolerance (Excl Glucose Intolerance)” value was 0 n (%). The “TEAE: Suicidal Ideation” value was 0 n (%), the “TEAE: Suicidal and Self-Injurious Behaviour” value was 0 n (%) and the “TEAE: Supraventricular Arrhythmias” value was 1 (<1%) n (%). The “TEAE: Supraventricular Tachycardia” value was 0 n (%), the “TEAE: Surgical and Medical Procedures” value was 1 (<1%) n (%) and the “TEAE: Sweating Increased” value was 0 n (%). For the same molecule, the “TEAE: Swelling Face” value was 0 n (%), the “TEAE: Tachycardia NOS” value was 1 (<1%) n (%) and the “TEAE: Tenderness NOS” value was 0 n (%). For the same molecule, the “TEAE: Thrombocytopenia” value was 0 n (%), the “TEAE: Thrombocytopenias” value was 0 n (%) and the “TEAE: Thrombophlebitis Superficial” value was 0 n (%). The “TEAE: Thyroid Disorders NEC” value was 1 (<1%) n (%), the “TEAE: Thyroid Hypofunction Disorders” value was 1 (<1%) n (%) and the “TEAE: Thyroid Neoplasms” value was 0 n (%). For the same molecule, the “TEAE: Thyroid Nodule” value was 0 n (%), the “TEAE: Tinnitus” value was 1 (<1%) n (%) and the “TEAE: Total Fluid Volume Decreased” value was 1 (<1%) n (%). The “TEAE: Tympanic Membrane Disorder NOS” value was 0 n (%), the “TEAE: Tympanic Membrane Disorders (Excl Infections)” value was 0 n (%) and the “TEAE: Upper Respiratory Tract Signs and Symptoms” value was 3 (1%) n (%). For the same molecule, the “TEAE: Urinary Abnormalities” value was 5 (2%) n (%), the “TEAE: Urinary Frequency” value was 2 (<1%) n (%) and the “TEAE: Urinary Incontinence” value was 1 (<1%) n (%). For the same molecule, the “TEAE: Urinary Retention” value was 1 (<1%) n (%), the “TEAE: Urinary Tract Lithiasis (Excl Renal)” value was 1 (<1%) n (%) and the “TEAE: Urinary Tract Signs and Symptoms NEC” value was 0 n (%). For the same molecule, the “TEAE: Urine Abnormal NOS” value was 1 (<1%) n (%), the “TEAE: Urticaria NOS” value was 1 (<1%) n (%) and the “TEAE: Urticarias” value was 1 (<1%) n (%). The “TEAE: Uterine Disorders NEC*” value was 2 (1%) n (%), the “TEAE: Uterine Fibroids*” value was 1 (<1%) n (%) and the “TEAE: Uterine Neoplasms Benign*” value was 1 (<1%) n (%). For the same molecule, the “TEAE: Uterine Neoplasms*” value was 2 (1%) n (%), the “TEAE: Uterine Polyp NOS*” value was 2 (1%) n (%) and the “TEAE: Vaginal Cyst*” value was 1 (<1%) n (%). For the same molecule, the “TEAE: Vaginal Lesion*” value was 1 (<1%) n (%), the “TEAE: Varicose Vein Ruptured” value was 2 (<1%) n (%) and the “TEAE: Varicose Veins Non-Site Specific” value was 2 (<1%) n (%). For the same molecule, the “TEAE: Vascular Disorders” value was 13 (5%) n (%), the “TEAE: Vascular Hypertensive Disorders NEC” value was 8 (3%) n (%) and the “TEAE: Vascular Hypotensive Disorders” value was 0 n (%). The “TEAE: Ventricular Arrhythmias and Cardiac Arrest” value was 1 (<1%) n (%), the “TEAE: Ventricular Extrasystoles” value was 1 (<1%) n (%) and the “TEAE: Vertigo” value was 1 (<1%) n (%). The “TEAE: Visual Acuity Reduced” value was 0 n (%), the “TEAE: Vitreous Disorder NOS” value was 0 n (%) and the “TEAE: Vulvovaginal Cysts and Neoplasms*” value was 1 (<1%) n (%). The “TEAE: Vulvovaginal Dryness*” value was 0 n (%).
